ChEMBL document CHEMBL5036378, “Discovery of 5-Aryl-2,4-diaminopyrimidine Compounds as Potent and Selective IRAK4 Inhibitors” (ACS Med Chem Lett, 2022)

How the values were obtained:
THP-1 = experiment: Antiinflammatory activity against human THP-1 cells assessed as inhibition of LPS induced IL-23 production preincubated with compound for 1 hr followed by LPS stimulation and measured after 18 hrs by cell based ELISA method; format: functional
[1] = biological target: T1, Interleukin-1 receptor-associated kinase 4 (Homo sapiens, UniProt Q9NWZ3); experiment: Inhibition of IRAK4 (unknown origin) in presence of MBP as substrate by ADP-Glo assay
T1 sequence (Q9NWZ3 whole entry): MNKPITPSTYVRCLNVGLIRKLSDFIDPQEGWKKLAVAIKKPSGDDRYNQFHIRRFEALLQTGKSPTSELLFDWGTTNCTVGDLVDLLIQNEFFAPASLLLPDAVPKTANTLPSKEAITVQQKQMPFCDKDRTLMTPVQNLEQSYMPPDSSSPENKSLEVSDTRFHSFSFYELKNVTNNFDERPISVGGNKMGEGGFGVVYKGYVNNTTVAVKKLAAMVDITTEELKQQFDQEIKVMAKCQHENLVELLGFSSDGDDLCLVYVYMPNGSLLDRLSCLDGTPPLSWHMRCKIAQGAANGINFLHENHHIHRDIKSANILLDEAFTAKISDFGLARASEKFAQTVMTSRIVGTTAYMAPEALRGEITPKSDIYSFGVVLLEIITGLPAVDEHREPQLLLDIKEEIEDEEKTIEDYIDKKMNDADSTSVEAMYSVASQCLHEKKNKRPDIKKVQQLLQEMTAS

[2] = biological target: T2, Mitogen-activated protein kinase kinase kinase 7 (Homo sapiens, UniProt O43318); experiment: Inhibition of TAK1 (unknown origin) in presence of MBP as substrate by ADP-Glo assay
T2 sequence (O43318 whole entry): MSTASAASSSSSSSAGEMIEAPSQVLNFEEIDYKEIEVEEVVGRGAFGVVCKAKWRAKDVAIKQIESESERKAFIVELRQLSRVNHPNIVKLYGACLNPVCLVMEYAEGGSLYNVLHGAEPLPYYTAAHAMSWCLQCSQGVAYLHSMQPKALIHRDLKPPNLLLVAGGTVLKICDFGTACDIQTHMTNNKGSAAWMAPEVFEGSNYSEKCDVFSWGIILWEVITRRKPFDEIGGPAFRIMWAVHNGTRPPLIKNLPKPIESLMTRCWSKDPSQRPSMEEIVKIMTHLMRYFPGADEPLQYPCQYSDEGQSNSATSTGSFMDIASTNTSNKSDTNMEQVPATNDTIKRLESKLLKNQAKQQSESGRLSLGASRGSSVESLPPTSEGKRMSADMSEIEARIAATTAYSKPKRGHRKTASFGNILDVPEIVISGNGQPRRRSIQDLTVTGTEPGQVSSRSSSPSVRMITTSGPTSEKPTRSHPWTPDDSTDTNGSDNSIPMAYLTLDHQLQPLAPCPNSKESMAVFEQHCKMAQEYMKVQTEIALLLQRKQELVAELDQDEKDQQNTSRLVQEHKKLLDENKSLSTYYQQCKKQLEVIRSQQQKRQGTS

[3] = Drug concentration in female BALB/c mouse plasma at 75 mg/kg, po incubated for 30 mins followed by IL-1beta administration and measured after 30 mins; format: ADME, organism-based; conditions: time 60 min, read-out: Drug uptake
Mus musculus = experiment: Antiinflammatory activity in female BALB/c mouse assessed as inhibition of IL-1beta induced IL-6 levels at 75 mg/kg, po for 30 mins followed by IL-1beta administration and measured after 1.5 hrs by ELISA method; format: functional; conditions: time 2 hrs
Blood = experiment: Antiinflammatory activity against human whole blood assessed as inhibition of IL-1beta induced MIP-1beta production preincubated with compound for 1 hr followed by IL-1beta stimulation and measured after 12 hrs by cell based ELISA method; format: functional, tissue-based
HUVEC [4] = experiment: Antiinflammatory activity against HUVEC cells assessed as inhibition of LPS induced IL-6 production measured by ELISA method; format: functional, cell-based; conditions: Homo sapiens
HUVEC [5] = experiment: Antiinflammatory activity against HUVEC cells assessed as inhibition of IL-1beta induced IL-6 production preincubated with compound for 1 hr followed by IL-1beta stimulation and measured after 12 hrs by cell based ELISA method; format: functional; conditions: Homo sapiens
[6] = Antiinflammatory activity against human monocyte derived dendritic cells assessed as inhibition of LPS induced IL-23 production preincubated with compound for 1 hr followed by LPS stimulation and measured after 18 hrs by cell based ELISA method; format: functional

| Structure (SMILES) | IC50 (THP-1) [nM] | IC50 [1] [nM] | IC50 [2] [nM] | other results |
| --- | --- | --- | --- | --- |
| NC(=O)[C@@H]1[C@H](Nc2nc(Nc3cccc(C(=O)N4CCCC4)c3)ncc2C2CC2)[C@H]2C=C[C@@H]1C2 | 90 |  |  |  |
| NC(=O)[C@@H]1[C@H](Nc2nc(Nc3ccnc(N4CCOCC4)c3)ncc2-c2cccc(F)c2)[C@H]2C=C[C@@H]1C2 | 40 | 8 | 160 |  |
| Cc1cc(Nc2ncc(-c3cccnc3)c(N[C@H]3[C@@H](C(N)=O)[C@@H]4C=C[C@H]3C4)n2)ccc1OCCN1CCCC1 | 1100 | 179 | 450 |  |
| Cc1cnc(Nc2cccc(C(=O)N3CCCC3)c2)nc1N[C@H]1[C@@H](C(N)=O)[C@@H]2C=C[C@H]1C2 | 100 |  |  |  |
| NC(=O)[C@@H]1[C@H](Nc2nc(Nc3cccc(C(=O)N4CCCC4)c3)ncc2-c2ccccc2F)[C@H]2C=C[C@@H]1C2 | 130 | 11 |  |  |
| NC(=O)[C@@H]1[C@H](Nc2nc(Nc3ccc(N4CCOCC4)nc3)ncc2-c2cccc(F)c2)[C@H]2C=C[C@@H]1C2 | 210 | 25 | 450 |  |
| NC(=O)[C@@H]1[C@H](Nc2nc(Nc3ccc(OCCN4CCCC4)cc3)ncc2-c2cccnc2)[C@H]2C=C[C@@H]1C2 | 700 | 103 | 380 |  |
| NC(=O)[C@@H]1[C@H](Nc2nc(Nc3cccc(C(=O)N4CCCC4)c3)ncc2-c2cccc(F)c2)[C@H]2C=C[C@@H]1C2 | 870 | 4 | 24 |  |
| NC(=O)[C@@H]1[C@H](Nc2nc(Nc3cccc(C(=O)N4CCOCC4)c3)ncc2-c2cccc(F)c2)[C@H]2C=C[C@@H]1C2 | 220 | 14 | 94 |  |
| CN1CCN(c2cc(F)cc(Nc3ncc(-c4cccc(F)c4)c(N[C@H]4[C@@H](C(N)=O)[C@@H]5C=C[C@H]4C5)n3)c2)CC1 | 260 | 18 | 100 |  |
| NC(=O)[C@@H]1[C@H](Nc2nc(Nc3cccc(C(=O)N4CCCC4)c3)ncc2-c2cccnc2)[C@H]2C=C[C@@H]1C2 | 320 |  |  |  |
| NC(=O)[C@@H]1[C@H](Nc2nc(Nc3cccc(C(=O)N4CCCC4)c3)ncc2-c2ccc(F)cc2)[C@H]2C=C[C@@H]1C2 | 460 |  |  |  |
| N#Cc1ccc(-c2cnc(Nc3cccc(C(=O)N4CCCC4)c3)nc2N[C@H]2[C@@H](C(N)=O)[C@@H]3C=C[C@H]2C3)cc1 | 190 |  |  |  |
| NC(=O)[C@@H]1[C@H](Nc2nc(Nc3ccnc(N4CCCC4)c3)ncc2-c2cccc(F)c2)[C@H]2C=C[C@@H]1C2 | 280 | 33 | 2400 |  |
| NC(=O)[C@@H]1[C@H](Nc2nc(Nc3cccc(C(=O)N4CCCC4)c3)ncc2-c2ccsc2)[C@H]2C=C[C@@H]1C2 | 110 | 5 | 27 |  |
| NC(=O)[C@@H]1[C@H](Nc2nc(Nc3cc(F)cc(N4CCOCC4)c3)ncc2-c2cccc(F)c2)[C@H]2C=C[C@@H]1C2 | 250 | 12 | 1000 |  |
| N#Cc1cccc(-c2cnc(Nc3cccc(C(=O)N4CCCC4)c3)nc2N[C@H]2[C@@H](C(N)=O)[C@@H]3C=C[C@H]2C3)c1 | 280 |  | 100 |  |
| NC(=O)[C@@H]1[C@H](Nc2nc(Nc3cccc(C(=O)N4CCCC4)c3)ncc2-c2ccccc2)[C@H]2C=C[C@@H]1C2 | 220 |  | 170 |  |
| NC(=O)[C@@H]1[C@H](Nc2nc(Nc3cccc(C(=O)N4CCCC4)c3)ncc2-c2cncc(F)c2)[C@H]2C=C[C@@H]1C2 |  |  |  | concentration at 1 h [3]: 2880 ng/mL |
| CN1CCN(c2cc(Nc3ncc(-c4cccc(F)c4)c(N[C@H]4[C@@H](C(N)=O)[C@@H]5C=C[C@H]4C5)n3)ccn2)CC1 | 50 | 6 | 120 |  |
| NC(=O)[C@@H]1[C@H](Nc2nc(Nc3cccc(C(=O)N4CCCC4)c3)ncc2-c2ccoc2)[C@H]2C=C[C@@H]1C2 | 40 |  |  |  |
| NC(=O)[C@@H]1[C@H](Nc2nc(Nc3cccc(-c4cnco4)c3)ncc2-c2cccc(F)c2)[C@H]2C=C[C@@H]1C2 | 390 | 25 | 270 |  |
| CN1CCN(c2ccc(Nc3ncc(-c4cccc(F)c4)c(N[C@H]4[C@@H](C(N)=O)[C@@H]5C=C[C@H]4C5)n3)cn2)CC1 | 240 | 26 | 280 |  |
| NC(=O)[C@@H]1[C@H](Nc2nc(Nc3ccc(C(=O)N4CCCC4)cc3)ncc2-c2cccnc2)[C@H]2C=C[C@@H]1C2 | 230 | 26 | 250 |  |
| CN1CCN(C(=O)c2cccc(Nc3ncc(-c4cccc(F)c4)c(N[C@H]4[C@@H](C(N)=O)[C@@H]5C=C[C@H]4C5)n3)c2)CC1 | 130 | 5 | 48 |  |
| NC(=O)[C@@H]1[C@H](Nc2nc(Nc3cccc(C(=O)N4CCCC4)c3)ncc2-c2ccncc2)[C@H]2C=C[C@@H]1C2 | 320 | 10 | 230 |  |
| NC(=O)[C@@H]1[C@H](Nc2nc(Nc3ccc(-c4cnco4)cc3)ncc2-c2cccc(F)c2)[C@H]2C=C[C@@H]1C2 | 290 | 37 | 390 |  |
| NC(=O)[C@@H]1[C@H](Nc2nc(Nc3cccc(C(=O)N4CCCC4)c3)ncc2-c2ccnc(F)c2)[C@H]2C=C[C@@H]1C2 | 100 |  |  | inhibition in vivo at 75 mg/kg (Mus musculus): 64%; IC50 (Blood): 510 nM; IC50 (HUVEC [4]): 120 nM; IC50 (HUVEC [5]): 110 nM; concentration at 1 h [3]: 6820 ng/mL; IC50 [6]: 110 nM |
